In PubChem BioAssay (NCI):
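Tested at 5 concentrations; 48 h exposure; 96-well plates; endpoints linearly interpolated, else capped at highest concentration. The concentration for 50% growth inhibition is given as GI50. TGI denotes the concentration required for complete inhibition of growth.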

Experiments:
Experiment in all cases: growth of human tumour cells (NCI), 48 h
786-0 renal = test system: 786-0 renal
A498 renal = test system: A498 renal
A549 NSCLC = test system: A549 NSCLC
ACHN renal = test system: ACHN renal
BT-549 breast = test system: BT-549 breast
CAKI-1 renal = test system: CAKI-1 renal
CCRF-CEM leukemia = test system: CCRF-CEM leukemia
COLO 205 colon = test system: COLO 205 colon
DU-145 prostate = test system: DU-145 prostate
EKVX NSCLC = test system: EKVX NSCLC
HCC-2998 colon = test system: HCC-2998 colon
HCT-116 colon = test system: HCT-116 colon
HCT-15 colon = test system: HCT-15 colon
HL-60(TB) leukemia = test system: HL-60(TB) leukemia
HOP-62 NSCLC = test system: HOP-62 NSCLC
HOP-92 NSCLC = test system: HOP-92 NSCLC
HS 578T breast = test system: HS 578T breast
HT29 colon = test system: HT29 colon
IGROV1 ovarian = test system: IGROV1 ovarian
K-562 leukemia = test system: K-562 leukemia
KM12 colon = test system: KM12 colon
LOX IMVI melanoma = test system: LOX IMVI melanoma
M14 melanoma = test system: M14 melanoma
MALME-3M melanoma = test system: MALME-3M melanoma
MCF7 breast = test system: MCF7 breast
MDA-MB-231 breast = test system: MDA-MB-231 breast
MDA-MB-435 = test system: MDA-MB-435
MOLT-4 leukemia = test system: MOLT-4 leukemia
NCI-H226 lung = test system: NCI-H226 lung
NCI-H23 lung = test system: NCI-H23 lung
NCI-H460 lung = test system: NCI-H460 lung
NCI-H522 lung = test system: NCI-H522 lung
NCI/ADR-RES ovarian = test system: NCI/ADR-RES ovarian
OVCAR-3 ovarian = test system: OVCAR-3 ovarian
OVCAR-4 ovarian = test system: OVCAR-4 ovarian
OVCAR-5 ovarian = test system: OVCAR-5 ovarian
OVCAR-8 ovarian = test system: OVCAR-8 ovarian
PC-3 prostate = test system: PC-3 prostate
RPMI-8226 leukemia = test system: RPMI-8226 leukemia
RXF 393 renal = test system: RXF 393 renal
SF-268 CNS = test system: SF-268 CNS
SF-295 CNS = test system: SF-295 CNS
SF-539 CNS = test system: SF-539 CNS
SK-MEL-2 melanoma = test system: SK-MEL-2 melanoma
SK-MEL-28 melanoma = test system: SK-MEL-28 melanoma
SK-MEL-5 melanoma = test system: SK-MEL-5 melanoma
SK-OV-3 ovarian = test system: SK-OV-3 ovarian
SN12C renal = test system: SN12C renal
SNB-19 CNS = test system: SNB-19 CNS
SNB-75 CNS = test system: SNB-75 CNS
SR leukemia = test system: SR leukemia
SW-620 colon = test system: SW-620 colon
T-47D breast = test system: T-47D breast
TK-10 renal = test system: TK-10 renal
U251 CNS = test system: U251 CNS
UACC-257 melanoma = test system: UACC-257 melanoma
UACC-62 melanoma = test system: UACC-62 melanoma
UO-31 renal = test system: UO-31 renal
MDA-N = test system: MDA-N

O=C(Nc1cc(Oc2cc(F)c(NC(=O)C3(C(=O)Nc4ccc(F)cc4)CC3)cc2F)ccn1)C1CC1
GI50 (786-0 renal): 3.98 µM
TGI (786-0 renal): > 50.1 µM
GI50 (A498 renal): 2.41 µM
TGI (A498 renal): 5.18 µM
GI50 (A549 NSCLC): 3.21 µM
TGI (A549 NSCLC): > 36.6 µM
GI50 (ACHN renal): 2.87 µM
TGI (ACHN renal): > 100 µM
GI50 (BT-549 breast): 3.07 µM
TGI (BT-549 breast): 7.09 µM
GI50 (CAKI-1 renal): 3.77 µM
TGI (CAKI-1 renal): > 100 µM
GI50 (CCRF-CEM leukemia): 2.39 µM
TGI (CCRF-CEM leukemia): 7.59 µM
GI50 (COLO 205 colon): 1.4 µM
TGI (COLO 205 colon): 3.27 µM
GI50 (DU-145 prostate): 3.27 µM
TGI (DU-145 prostate): > 100 µM
GI50 (EKVX NSCLC): 2.42 µM
TGI (EKVX NSCLC): 5.51 µM
GI50 (HCC-2998 colon): 3.5 µM
TGI (HCC-2998 colon): > 29.4 µM
GI50 (HCT-116 colon): 2.27 µM
TGI (HCT-116 colon): > 100 µM
GI50 (HCT-15 colon): 3 µM
TGI (HCT-15 colon): > 54.2 µM
GI50 (HL-60(TB) leukemia): 2.18 µM
TGI (HL-60(TB) leukemia): 5.6 µM
GI50 (HOP-62 NSCLC): 2.76 µM
TGI (HOP-62 NSCLC): 8.71 µM
GI50 (HOP-92 NSCLC): 0.59 µM
TGI (HOP-92 NSCLC): 5.86 µM
GI50 (HS 578T breast): 2.5 µM
TGI (HS 578T breast): 6.82 µM
GI50 (HT29 colon): 0.929 µM
TGI (HT29 colon): 4.74 µM
GI50 (IGROV1 ovarian): 2.85 µM
TGI (IGROV1 ovarian): 7.61 µM
GI50 (K-562 leukemia): 1.9 µM
TGI (K-562 leukemia): > 100 µM
TGI (KM12 colon): 7.42 µM
GI50 (LOX IMVI melanoma): 2.2 µM
TGI (LOX IMVI melanoma): 6.25 µM
GI50 (M14 melanoma): 1.53 µM
TGI (M14 melanoma): 5.23 µM
GI50 (MALME-3M melanoma): 0.324 µM
TGI (MALME-3M melanoma): 2.47 µM
GI50 (MCF7 breast): 0.936 µM
TGI (MCF7 breast): 9.55 µM
GI50 (MDA-MB-231 breast): 2.43 µM
TGI (MDA-MB-231 breast): > 100 µM
GI50 (MDA-MB-435): 1.53 µM
TGI (MDA-MB-435): 4.26 µM
GI50 (MOLT-4 leukemia): 2.18 µM
TGI (MOLT-4 leukemia): 7.1 µM
GI50 (NCI-H226 lung): 2.53 µM
TGI (NCI-H226 lung): 7.98 µM
GI50 (NCI-H23 lung): 1.31 µM
TGI (NCI-H23 lung): 6.02 µM
GI50 (NCI-H460 lung): 3.27 µM
TGI (NCI-H460 lung): > 34.7 µM
GI50 (NCI-H522 lung): 2.18 µM
TGI (NCI-H522 lung): 5.84 µM
GI50 (NCI/ADR-RES ovarian): 2.79 µM
TGI (NCI/ADR-RES ovarian): 8.73 µM
GI50 (OVCAR-3 ovarian): 3.69 µM
TGI (OVCAR-3 ovarian): 13.1 µM
GI50 (OVCAR-4 ovarian): 3.93 µM
TGI (OVCAR-4 ovarian): > 30.8 µM
GI50 (OVCAR-5 ovarian): 3.12 µM
TGI (OVCAR-5 ovarian): > 100 µM
GI50 (OVCAR-8 ovarian): 3.25 µM
TGI (OVCAR-8 ovarian): > 31.6 µM
GI50 (PC-3 prostate): 2.51 µM
TGI (PC-3 prostate): 6.85 µM
GI50 (RPMI-8226 leukemia): 2.95 µM
TGI (RPMI-8226 leukemia): 6.51 µM
GI50 (RXF 393 renal): 2.49 µM
TGI (RXF 393 renal): 4.91 µM
GI50 (SF-268 CNS): 3.09 µM
TGI (SF-268 CNS): > 28.5 µM
GI50 (SF-295 CNS): 2.21 µM
TGI (SF-295 CNS): 9.91 µM
GI50 (SF-539 CNS): 1.83 µM
TGI (SF-539 CNS): 4.14 µM
GI50 (SK-MEL-2 melanoma): 1.35 µM
TGI (SK-MEL-2 melanoma): 3.64 µM
GI50 (SK-MEL-28 melanoma): 1.64 µM
TGI (SK-MEL-28 melanoma): 6.33 µM
GI50 (SK-MEL-5 melanoma): 1.52 µM
TGI (SK-MEL-5 melanoma): 3.47 µM
GI50 (SK-OV-3 ovarian): 4.04 µM
TGI (SK-OV-3 ovarian): > 29.9 µM
GI50 (SN12C renal): 2.68 µM
TGI (SN12C renal): > 100 µM
GI50 (SNB-19 CNS): 3.75 µM
TGI (SNB-19 CNS): > 100 µM
GI50 (SNB-75 CNS): 1.49 µM
TGI (SNB-75 CNS): 3.16 µM
GI50 (SR leukemia): 1.7 µM
TGI (SR leukemia): 5.38 µM
GI50 (SW-620 colon): 3.12 µM
TGI (SW-620 colon): > 100 µM
GI50 (T-47D breast): 2.33 µM
TGI (T-47D breast): 6.61 µM
GI50 (TK-10 renal): 4.14 µM
TGI (TK-10 renal): > 100 µM
GI50 (U251 CNS): 3.96 µM
TGI (U251 CNS): > 46.3 µM
GI50 (UACC-257 melanoma): 2.08 µM
TGI (UACC-257 melanoma): 6.32 µM
GI50 (UACC-62 melanoma): 1.19 µM
TGI (UACC-62 melanoma): 5.6 µM
GI50 (UO-31 renal): 2.68 µM
TGI (UO-31 renal): 7.23 µM

Cc1nc2[nH]ncn2c(=O)c1CCO
TGI (A498 renal): > 10 µM
TGI (A549 NSCLC): > 10 µM
TGI (ACHN renal): > 10 µM
TGI (CAKI-1 renal): > 10 µM
TGI (CCRF-CEM leukemia): > 10 µM
TGI (COLO 205 colon): > 10 µM
TGI (DU-145 prostate): > 10 µM
TGI (EKVX NSCLC): > 10 µM
TGI (HCC-2998 colon): > 10 µM
TGI (HCT-116 colon): > 10 µM
TGI (HCT-15 colon): > 10 µM
TGI (HL-60(TB) leukemia): > 10 µM
TGI (HOP-62 NSCLC): > 10 µM
TGI (HS 578T breast): > 10 µM
TGI (HT29 colon): > 10 µM
TGI (IGROV1 ovarian): > 10 µM
TGI (K-562 leukemia): > 10 µM
TGI (LOX IMVI melanoma): > 10 µM
TGI (M14 melanoma): > 10 µM
TGI (MALME-3M melanoma): > 10 µM
TGI (MCF7 breast): > 10 µM
TGI (MDA-MB-231 breast): > 10 µM
TGI (MDA-MB-435): > 10 µM
TGI (MDA-N): > 10 µM
TGI (MOLT-4 leukemia): > 10 µM
TGI (NCI-H226 lung): > 10 µM
TGI (NCI-H23 lung): > 10 µM
TGI (NCI-H460 lung): > 10 µM
TGI (NCI-H522 lung): > 10 µM
TGI (NCI/ADR-RES ovarian): > 10 µM
TGI (OVCAR-4 ovarian): > 10 µM
TGI (OVCAR-5 ovarian): > 10 µM
TGI (OVCAR-8 ovarian): > 10 µM
TGI (PC-3 prostate): > 10 µM
TGI (RPMI-8226 leukemia): > 10 µM
TGI (RXF 393 renal): > 10 µM
TGI (SF-268 CNS): > 10 µM
TGI (SF-539 CNS): > 10 µM
TGI (SK-MEL-2 melanoma): > 10 µM
TGI (SK-MEL-28 melanoma): 7.74 µM
TGI (SK-MEL-5 melanoma): > 10 µM
TGI (SK-OV-3 ovarian): > 10 µM
TGI (SN12C renal): > 10 µM
TGI (SNB-19 CNS): > 10 µM
TGI (SNB-75 CNS): > 10 µM
TGI (SR leukemia): > 10 µM
TGI (SW-620 colon): > 10 µM
TGI (T-47D breast): > 10 µM
TGI (TK-10 renal): > 10 µM
TGI (U251 CNS): > 10 µM
TGI (UACC-62 melanoma): > 10 µM
TGI (UO-31 renal): > 10 µM
